Laboratory results: PubChem BioAssay AID1963852 (Molecular Pharmacology Branch, DTP, NCI, 2024)

Test system: 282377-053-R-J1-PDC complex spheroid viability
Test: Anticancer human tumor 282377-053-R-J1-PDC patient-derived colon adenocarcinoma cell line growth inhibition [POLQ]
Conditions: for IC50: curve of first compound; for viability, T/C: stronger effect = lower value
How it was run: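 Growth inhibition in 3D: complex spheroids (tumor PDC, HUVEC, MSC) treated with POLQ inhibitor combinations; where Cmax unknown, highest tested concentration 10 microM, except SN-38 at 1 microM.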

[1] = second compound 0.0316 µM, first compound 0.0316 µM
[2] = second compound 0.0316 µM, first compound 0.1 µM
[3] = second compound 0.0316 µM, first compound 0.316 µM
[4] = second compound 0.0316 µM, first compound 1 µM
[5] = second compound 0.0316 µM, first compound 3.16 µM
[6] = second compound 0.0316 µM, first compound 10 µM
[7] = second compound 0.1 µM, first compound 0.0316 µM
[8] = second compound 0.1 µM, first compound 0.1 µM
[9] = second compound 0.1 µM, first compound 0.316 µM
[10] = second compound 0.1 µM, first compound 1 µM
[11] = second compound 0.1 µM, first compound 3.16 µM
[12] = second compound 0.1 µM, first compound 10 µM
[13] = second compound 0.316 µM, first compound 0.0316 µM
[14] = second compound 0.316 µM, first compound 0.1 µM
[15] = second compound 0.316 µM, first compound 0.316 µM
[16] = second compound 0.316 µM, first compound 1 µM
[17] = second compound 0.316 µM, first compound 3.16 µM
[18] = second compound 0.316 µM, first compound 10 µM
[19] = second compound 1 µM, first compound 0.0316 µM
[20] = second compound 1 µM, first compound 0.1 µM
[21] = second compound 1 µM, first compound 0.316 µM
[22] = second compound 1 µM, first compound 1 µM
[23] = second compound 1 µM, first compound 3.16 µM
[24] = second compound 1 µM, first compound 10 µM
[25] = second compound 3.16 µM, first compound 0.0316 µM
[26] = second compound 3.16 µM, first compound 0.1 µM
[27] = second compound 3.16 µM, first compound 0.316 µM
[28] = second compound 3.16 µM, first compound 1 µM
[29] = second compound 3.16 µM, first compound 3.16 µM
[30] = second compound 3.16 µM, first compound 10 µM
[31] = second compound 10 µM, first compound 0.0316 µM
[32] = second compound 10 µM, first compound 0.1 µM
[33] = second compound 10 µM, first compound 0.316 µM
[34] = second compound 10 µM, first compound 1 µM
[35] = second compound 10 µM, first compound 3.16 µM
[36] = second compound 10 µM, first compound 10 µM
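Note: spheroids exposed to compounds for seven days.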
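Throughout, for viability, T/C: 100% = DMSO vehicle control viability.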

CCc1cc2c(N3CCc4c(cc(Cn5ccnc5)cc4-c4cn(C)nc4C(F)(F)F)C3=O)cc(C)nc2c(OC)n1 + COC1C(OC(N)=O)C(O)C(Oc2ccc3c(O)c(NC(=O)c4ccc(O)c(CC=C(C)C)c4)c(=O)oc3c2C)OC1(C)C
IC50 (second compound 0.0316 µM): > 10 µM
IC50 (second compound 0.1 µM): > 10 µM
IC50 (second compound 0.316 µM): > 10 µM
IC50 (second compound 1 µM): > 10 µM
IC50 (second compound 3.16 µM): > 10 µM
IC50 (second compound 10 µM): > 10 µM
viability, T/C [1]: 130%
viability, T/C [2]: 152%
viability, T/C [3]: 172%
viability, T/C [4]: 158%
viability, T/C [5]: 123%
viability, T/C [6]: 74.5%
viability, T/C [7]: 120%
viability, T/C [8]: 157%
viability, T/C [9]: 124%
viability, T/C [10]: 131%
viability, T/C [11]: 134%
viability, T/C [12]: 68.9%
viability, T/C [13]: 132%
viability, T/C [14]: 126%
viability, T/C [15]: 132%
viability, T/C [16]: 140%
viability, T/C [17]: 119%
viability, T/C [18]: 67.2%
viability, T/C [19]: 141%
viability, T/C [20]: 128%
viability, T/C [21]: 143%
viability, T/C [22]: 158%
viability, T/C [23]: 108%
viability, T/C [24]: 80.7%
viability, T/C [25]: 109%
viability, T/C [26]: 125%
viability, T/C [27]: 133%
viability, T/C [28]: 126%
viability, T/C [29]: 128%
viability, T/C [30]: 73.8%
viability, T/C [31]: 111%
viability, T/C [32]: 109%
viability, T/C [33]: 114%
viability, T/C [34]: 143%
viability, T/C [35]: 123%
viability, T/C [36]: 80%

C=CC(=O)N1CCN(c2nc(=O)n(-c3c(C)ccnc3C(C)C)c3nc(-c4c(O)cccc4F)c(F)cc23)C(C)C1 (stereo unspecified) + Nc1ccc(C#CCN(C(=O)Cc2ncc(C(F)(F)F)cc2C(F)(F)F)c2ccc(F)cc2)nn1
IC50 (second compound 0.0316 µM): > 10 µM
IC50 (second compound 0.1 µM): > 10 µM
IC50 (second compound 0.316 µM): > 10 µM
IC50 (second compound 1 µM): > 10 µM
IC50 (second compound 3.16 µM): > 10 µM
IC50 (second compound 10 µM): > 10 µM
viability, T/C [1]: 95%
viability, T/C [2]: 107%
viability, T/C [3]: 94%
viability, T/C [4]: 90.8%
viability, T/C [5]: 104%
viability, T/C [6]: 97.5%
viability, T/C [7]: 95.3%
viability, T/C [8]: 107%
viability, T/C [9]: 91%
viability, T/C [10]: 99.7%
viability, T/C [11]: 113%
viability, T/C [12]: 83.4%
viability, T/C [13]: 90.4%
viability, T/C [14]: 88.6%
viability, T/C [15]: 100%
viability, T/C [16]: 98.7%
viability, T/C [17]: 101%
viability, T/C [18]: 94.9%
viability, T/C [19]: 108%
viability, T/C [20]: 90.9%
viability, T/C [21]: 111%
viability, T/C [22]: 91.3%
viability, T/C [23]: 97.7%
viability, T/C [24]: 86.9%
viability, T/C [25]: 106%
viability, T/C [26]: 100%
viability, T/C [27]: 92.8%
viability, T/C [28]: 108%
viability, T/C [29]: 91%
viability, T/C [30]: 87.9%
viability, T/C [31]: 112%
viability, T/C [32]: 107%
viability, T/C [33]: 114%
viability, T/C [34]: 114%
viability, T/C [35]: 98.7%
viability, T/C [36]: 106%

O=c1[nH]cc(F)c(=O)[nH]1 + Cc1cccc(N(C)C(=O)C2C(O)CCN2c2nc(C)cc(C(F)(F)F)c2C#N)c1
IC50 (second compound 0.0316 µM): > 10 µM
IC50 (second compound 0.1 µM): > 10 µM
IC50 (second compound 0.316 µM): > 10 µM
IC50 (second compound 1 µM): > 10 µM
IC50 (second compound 3.16 µM): > 10 µM
IC50 (second compound 10 µM): > 10 µM
viability, T/C [1]: 111%
viability, T/C [2]: 104%
viability, T/C [3]: 89.8%
viability, T/C [4]: 78.8%
viability, T/C [5]: 70.3%
viability, T/C [6]: 68.5%
viability, T/C [7]: 102%
viability, T/C [8]: 111%
viability, T/C [9]: 128%
viability, T/C [10]: 86%
viability, T/C [11]: 76.7%
viability, T/C [12]: 70.4%
viability, T/C [13]: 117%
viability, T/C [14]: 88.7%
viability, T/C [15]: 116%
viability, T/C [16]: 74.9%
viability, T/C [17]: 80.3%
viability, T/C [18]: 67.9%
viability, T/C [19]: 107%
viability, T/C [20]: 85.5%
viability, T/C [21]: 105%
viability, T/C [22]: 104%
viability, T/C [23]: 82.7%
viability, T/C [24]: 63.1%
viability, T/C [25]: 99.1%
viability, T/C [26]: 104%
viability, T/C [27]: 80.6%
viability, T/C [28]: 88.6%
viability, T/C [29]: 80.1%
viability, T/C [30]: 68.7%
viability, T/C [31]: 113%
viability, T/C [32]: 109%
viability, T/C [33]: 107%
viability, T/C [34]: 76.4%
viability, T/C [35]: 69.7%
viability, T/C [36]: 63.8%
